Measured values published in US6518288B2, “Amlodipine fumarate” (Synthon BV, priority 2000, dated 2003).

Test: Solubility of amlodipine hemifumarate in water and organic solvents (descriptive statement)
Format: physicochemical
Details: in water and most commonly used organic solvents

Amlodipine Hemifumarate
solubility: insoluble or only sparingly soluble
